According to patent US7390804B2, “N-containing five-membered ring compounds and pharmaceutical agents comprising the same as active ingredient” (Ono Pharmaceutical Co., Ltd., priority 2000, dated 2008):
pKi: −log10 of the molar value.

Tests used:
Cathepsin K = target: T1, Cathepsin K (Homo sapiens, UniProt P43235); test: Measurement of Cathepsin K inhibitory activity; format: biochemical; details: Dixon plot, pH 5.5, 37° C.
T1 sequence (P43235 115-329): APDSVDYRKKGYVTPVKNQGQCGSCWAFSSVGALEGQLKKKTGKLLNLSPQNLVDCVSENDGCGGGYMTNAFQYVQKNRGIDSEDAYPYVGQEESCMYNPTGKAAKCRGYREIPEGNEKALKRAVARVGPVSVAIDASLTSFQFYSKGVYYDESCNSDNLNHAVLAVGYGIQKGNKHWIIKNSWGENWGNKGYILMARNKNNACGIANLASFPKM
Procedure: (i) Measurement of Cathepsin K Inhibitory Activity
65 μL of Cathepsin K enzyme reaction buffer (50 mmol/L of 2-(N-morpholino)ethanesulfonate, 2 mmol/L of ethylenediamine tetraacetate (EDTA) and 4 mmol/L of dithiothreitol (DTT) were mixed to adjust to pH 5.5), 5 μL of cysteine protease inhibitor solution of several concentrations, 20 μL of synthesized substrate (t-butyloxycarbonyl-L-alanyl-glycyl-L-prolyl-L-arginine-4-methyl-chromanyl-7-amide) solution of several concentrations and 10 μL of cathepsin K enzyme solution were mixed and the increase of fluorescence intensity when reacted at 37° C. was measured (λ ex (excitation wavelength)=355 nm, λ em (fluorescence wavelength)=460 nm). As to the substrate and the compound of the present invention, enzyme reactions were carried out in combination of several appropriate concentrations and Dixon plotting was prepared, to define the absolute value of X-coordinate of the intersection point of the graph as Ki value.

cathepsin S = cathepsin S (Homo sapiens, UniProt P25774); test: Measurement of Cathepsin S inhibitory activity; format: biochemical; details: pH 6.5, 37° C.
Procedure: (iii) Measurement of Cathepsin S Inhibitory Activity
10 μL of synthesized substrate (carbobenzoxy-L-leucyl-L-leucyl-L-arguinine-4-methyl-chromanyl-7-amide) solution and 5 μL of cysteine protease inhibitor solution of several concentrations, 75)L of cathepsin S enzyme reaction buffer (100 mmol/L of sodium phosphate, 2 mmol/L of EDTA, 2 mmol/L of DTT were mixed to adjust to pH 6.5) and 10 μL of cathepsin S enzyme solution were mixed and the increase of fluorescence intensity was measured (λ ex(excitation wavelength)=355 nm, λ em (fluorescence wavelength)=460 nm) when reacted at 37° C.

Chain of cathepsin S (P25774 115-331, species assumed): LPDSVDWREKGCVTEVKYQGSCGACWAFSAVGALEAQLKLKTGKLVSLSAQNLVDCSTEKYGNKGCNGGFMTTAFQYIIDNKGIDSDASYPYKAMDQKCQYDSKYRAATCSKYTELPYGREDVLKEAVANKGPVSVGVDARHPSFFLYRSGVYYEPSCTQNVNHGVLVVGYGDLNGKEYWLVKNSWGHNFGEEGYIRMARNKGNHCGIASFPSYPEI

| pKi (Cathepsin K) | inhibition at 1 µM (cathepsin S) | SMILES |
| --- | --- | --- |
| 7.68 | – | CC(C)C[C@H](NC(=O)[C@H](CC(C)C)NC(=O)OCc1ccccc1)C(=O)Cn1nnc(-c2c(F)c(F)c(F)c(F)c2F)n1 [example 1(40), 2(S)-N-[3(S)-1-(5-(perfluorophenyl)tetrazol-2-yl)-2-oxo-5-methyl-3-hexyl]-2-benzyloxycarbonylamino-4-methylpentanamide] |
| 7.44 | – | CC(C)C[C@H](NC(=O)[C@H](CC(C)C)NC(=O)OCc1ccccc1)C(=O)Cn1c(-c2ccc(F)cc2)noc1=O [example 3(7), 2(S)-N-[3(S)-1-(5-oxo-3-(4-fluorophenyl)-1,2,4-oxadiazolin-4-yl)-2-oxo-5-methyl-3-hexyl]-2-benzyloxycarbonylamino-4-methylpentanamide] |
| – | 90% | CC(C)C[C@H](NC(=O)[C@H](CC(C)C)NC(=O)OCc1ccccc1)C(=O)Cn1nc(CCc2ccccc2)oc1=O [example 3(17), 2(S)-N-[3(S)-1-(5-oxo-2-(2-phenylethyl)-1,3,4-oxadiazolin-4-yl)-2-oxo-5-methyl-3-hexyl]-2-benzyloxycarbonylamino-4-methylpentanamide] |
